Results reported in patent US20220000875A1, “TOPICAL COMPOSITIONS COMPRISING PENTOXIFYLLINE AND METHODS OF TREATMENT USING THE SAME” (priority 2018, published 2022).

Columns and labels:
[1] = system: oral ulcers of BD patients; test: Randomized, open-label, proof-of-concept clinical study of topical PTX muco-adherent gel: oral ulcer healing, ulcer number, pain; assay type: in vivo, human
Description: (§1) A randomized, open-label, proof-of-concept clinical study was conducted under an FDA Investigational New Drug Application (IND). […] The CLC was administered orally as a pill and dosed as determined by the subject's physician. No less than every 48 hours, subjects' ulcers were photographed and examined using digital image processing to determine ulcer area, over a period of 14 days, which include daily collection of adverse events, ulcer number, and pain scores.
(§2) Inclusion criteria required the recent (<2 days) appearance of a new oral ulcer. Patients on immunosuppressant therapies were excluded from the study.
Patients were contacted daily for 14 consecutive days and were examined in-person no less than every 48 hours except for weekends. On the first day of entry into the study, the largest ulcer was identified and photographed as the “index ulcer”; its location was recorded and it was subsequently photographed at every in-person visit. Photographs were made with a paper ruler showing millimeter graduations lain in the same plane as the ulcer itself. Graphical processing software was used to compute the ulcer area in square millimeters; this software was calibrated from the paper ruler image and required drawing a line around the image of the ulcer margin.
Then, the proportion of patients with undetectable index ulcer (defined as those with an ulcer area of less than 1 mm^2) at day 4 was compared. Lastly, the trend in mean ulcer area over 14 days was compared as well as the results' sensitivity to outliers.
The total number of oral ulcers were also counted at each in-person visit, and the daily average number of oral ulcers were calculated during the treatment period.
The average day zero pain score for each treatment group was normalized to 100%. Then for each treatment group averages were plotted for succeeding days as a percentage of the first day's pain score average.

[2] = Adverse events in the randomized, open-label clinical study; details: adverse event
Description: as §1, §2
All adverse events were reviewed in real time by the treating physician investigator.

[3] = cited from earlier work
[4] = day 2 of treatment, PTX+CLC n = 18, CLC n = 21
[5] = interpreted as dermal manifestations of BD

## COc1cc2c(c(OC)c1OC)-c1ccc(OC)c(=O)cc1[C@@H](NC(C)=O)CC2 [CLC, colchicine]
[1]; [4]
  Day 2 Growth/Shrinkage - Patients with Index Ulcer Growth, %: 80%
  Day 2 Growth/Shrinkage - Patients with Index Ulcer Growth, Number: 16
  Day 2 Growth/Shrinkage - Patients with Index Ulcer Shrinkage, %: 19%
  Day 2 Growth/Shrinkage - Patients with Index Ulcer Shrinkage, Number: 4
[1]; day 4, PTX+CLC n = 18, CLC n = 21
  Day 4 Clearance - Patients with Remaining Ulcers, %: 71%
[1]; day 4, undetectable = ulcer area of less than 1 mm^2, PTX+CLC n = 18, CLC n = 21
  Day 4 Clearance - Patients with Undetectable Ulcers, %: 29%
[1]; over 14 days, FIG. 1
  mean index ulcer area by treatment group (trend): first growing then slowly decreasing
[1]; two weeks of treatment
  daily average number of oral ulcers during the treatment phase: 1.89+/−1.36
[2]
  Dysgeusia, % of patients: 0%
  Dysgeusia, number of patients: 0
  Nausea, % of patients: 10%
  Nausea, number of patients: 2
  Vomiting, number of patients: none
[2]; [5]
  limited dermal rashes, % of patients: 29%
  limited dermal rashes, number of patients: 6

## CC(O)CCCCn1c(=O)c2c(ncn2C)n(C)c1=O (centres unmarked) [Metabolite 1, 1-[5-hydroxyhexyl]-3,7-dimethylxanthine]
[3]
  plasma levels of metabolite relative to PTX: five

## Cn1cnc2c1c(=O)n(CCCC(=O)O)c(=O)n2C [Metabolite V, 1-[3-carboxypropyl]-3,7-dimethylxanthine]
[3]
  plasma levels of metabolite relative to PTX: eight
